Results as given in the NIST ThermoML archive (doi:10.1016/j.jct.2011.04.011).

Details: Liquid, Vibrating tube method

COC [dimethyl ether]
mass density [kg/m3]
Details | 293.84 K | 303.45 K | 313.18 K | 323 K | 332.83 K | 343.01 K | 353 K | 362.91 K | 372.94 K
1000 kPa | 669.27 | 653.54 | – | – | – | – | – | – | –
3000 kPa | 673.21 | 657.94 | 641.72 | 624.46 | 605.7 | 584.39 | 560.89 | – | –
5000 kPa | 676.85 | 662.06 | 646.5 | 630.01 | 612.33 | 592.63 | 571.39 | 547.69 | 519.39
10000 kPa | 685.08 | 671.42 | 657.11 | 642.19 | 626.46 | 609.39 | 591.7 | 572.99 | 552.4
15000 kPa | 692.61 | 679.73 | 666.38 | 652.54 | 638.17 | 622.87 | 607.19 | 591.04 | 573.78
20000 kPa | 699.44 | 687.19 | 674.68 | 661.65 | 648.33 | 634.17 | 619.91 | 605.41 | 590.14
25000 kPa | 705.75 | 694.14 | 682.06 | 669.81 | 657.3 | 644.06 | 630.86 | 617.51 | 603.55
30000 kPa | 711.53 | 700.39 | 688.96 | 677.2 | 665.34 | 652.87 | 640.46 | 627.99 | 615.07
35000 kPa | 717 | 706.33 | 695.3 | 684.06 | 672.7 | 660.84 | 649.09 | 637.26 | 625.15
40000 kPa | 722.21 | 711.79 | 701.19 | 690.37 | 679.54 | 668.11 | 656.92 | 645.67 | 634.21
50000 kPa | 731.68 | 721.98 | 711.96 | 701.9 | 691.67 | 681.15 | 670.8 | 660.45 | 649.98
60000 kPa | 740.35 | 731.17 | 721.63 | 712.04 | 702.5 | 692.63 | 682.9 | 673.27 | 663.51
70000 kPa | 748.4 | 739.59 | 730.55 | 721.44 | 712.29 | 702.89 | 693.76 | 684.63 | 675.48
